From patent US12077503B2, “Substituted cyclic amides and their use as herbicides” (FMC CORPORATION, priority 2015, dated 2024)

Legend:
Format in all cases: in vivo
[1] = tested on: barnyardgrass (Echinochloa crus-galli); experiment: Test G Post-Emergence Protocol; details: Echinochloa crus-galli, post-emergence, 312 h, read-out: Barnyardgrass damage rating; for pest or weed control at 15.625 g/ha: 15.625 g ai/ha, evaluated after 13 days (100=total damage to plant; 0=no damage to plant); for pest or weed control at 62.5 g/ha: 62.5 g ai/ha; for pest or weed control at 62.5 g/ha / pest or weed control at 250 g/ha: evaluated after 13 days, 100=total damage to plant, 0=no damage to plant; for pest or weed control at 250 g/ha: 250 g ai/ha
Method in brief: (§1)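 Values are percent visual injury at 13 days after treatment (0 none, 100 total). Treatment was a post-emergence spray at 15.625, 62.5 or 250 g/ha on 8-day-old pot plants kept at 24/16 °C.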

[2] = tested on: giant foxtail (Setaria faberi); experiment: Test G Post-Emergence Protocol; details: Setaria faberi, post-emergence, 312 h, read-out: Foxtail, Giant damage rating; for pest or weed control at 15.625 g/ha: 15.625 g ai/ha, evaluated after 13 days (100=total damage to plant; 0=no damage to plant); for pest or weed control at 62.5 g/ha: 62.5 g ai/ha; for pest or weed control at 62.5 g/ha / pest or weed control at 250 g/ha: evaluated after 13 days, 100=total damage to plant, 0=no damage to plant; for pest or weed control at 250 g/ha: 250 g ai/ha
Method in brief: as §1

[3] = tested on: velvetleaf (Abutilon theophrasti); experiment: Test G Post-Emergence Protocol; details: Abutilon theophrasti, post-emergence, 312 h, read-out: Velvetleaf damage rating; for pest or weed control at 15.625 g/ha: 15.625 g ai/ha, evaluated after 13 days (100=total damage to plant; 0=no damage to plant); for pest or weed control at 62.5 g/ha: 62.5 g ai/ha; for pest or weed control at 62.5 g/ha / pest or weed control at 250 g/ha: evaluated after 13 days, 100=total damage to plant, 0=no damage to plant; for pest or weed control at 250 g/ha: 250 g ai/ha
Method in brief: as §1

corn (Zea mays) [4] = experiment: Test G Post-Emergence Protocol; details: Zea mays, post-emergence, 312 h, read-out: Corn damage rating; for plant injury at 15.625 g/ha: 15.625 g ai/ha, evaluated after 13 days (100=total damage to plant; 0=no damage to plant); for plant injury at 62.5 g/ha: 62.5 g ai/ha; for plant injury at 62.5 g/ha / plant injury at 250 g/ha: evaluated after 13 days, 100=total damage to plant, 0=no damage to plant; for plant injury at 250 g/ha: 250 g ai/ha
Method in brief: as §1

[5] = tested on: ivy-leaved morning glory (Ipomoea hederacea); experiment: Test G Post-Emergence Protocol; details: Ipomoea, post-emergence, 312 h, read-out: Morningglory, Ivy-leaved damage rating; for pest or weed control at 15.625 g/ha: 15.625 g ai/ha, evaluated after 13 days (100=total damage to plant; 0=no damage to plant); for pest or weed control at 62.5 g/ha: 62.5 g ai/ha; for pest or weed control at 62.5 g/ha / pest or weed control at 250 g/ha: evaluated after 13 days, 100=total damage to plant, 0=no damage to plant; for pest or weed control at 250 g/ha: 250 g ai/ha
Method in brief: as §1

[6] = tested on: redroot pigweed (Amaranthus retroflexus); experiment: Test G Post-Emergence Protocol; details: Amaranthus retroflexus, post-emergence, 312 h, read-out: Pigweed, Redroot damage rating; for pest or weed control at 15.625 g/ha: 15.625 g ai/ha, evaluated after 13 days (100=total damage to plant; 0=no damage to plant); for pest or weed control at 62.5 g/ha: 62.5 g ai/ha; for pest or weed control at 62.5 g/ha / pest or weed control at 250 g/ha: evaluated after 13 days, 100=total damage to plant, 0=no damage to plant; for pest or weed control at 250 g/ha: 250 g ai/ha
Method in brief: as §1

[7] = tested on: barnyardgrass (Echinochloa crus-galli); experiment: Test G Pre-Emergence Protocol; details: Echinochloa crus-galli, pre-emergence, 312 h, evaluated after 13 days; for pest or weed control at 15.625 g/ha: 15.625 g ai/ha; for pest or weed control at 15.625 g/ha / pest or weed control at 250 g/ha: read-out: Barnyardgrass damage rating (100=total damage to plant; 0=no damage to plant); for pest or weed control at 62.5 g/ha: 62.5 g ai/ha, 100=total damage to plant, 0=no damage to plant, read-out: Barnyardgrass damage rating; for pest or weed control at 250 g/ha: 250 g ai/ha
Method in brief: (§2)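 Scores are visual damage ratings from 0 (no damage) to 100 (total plant kill), taken 13 days after treatment. Compound was sprayed one day post-sowing at 15.625, 62.5 or 250 g/ha in 50:50 acetone/water with 0.5% Tween 20.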

[8] = tested on: giant foxtail (Setaria faberi); experiment: Test G Pre-Emergence Protocol; details: Setaria faberi, pre-emergence, 312 h, evaluated after 13 days; for pest or weed control at 15.625 g/ha: 15.625 g ai/ha; for pest or weed control at 15.625 g/ha / pest or weed control at 250 g/ha: read-out: Foxtail, Giant damage rating (100=total damage to plant; 0=no damage to plant); for pest or weed control at 62.5 g/ha: 62.5 g ai/ha, 100=total damage to plant, 0=no damage to plant, read-out: Foxtail, Giant damage rating; for pest or weed control at 250 g/ha: 250 g ai/ha
Method in brief: as §2

[9] = tested on: velvetleaf (Abutilon theophrasti); experiment: Test G Pre-Emergence Protocol; details: Abutilon theophrasti, pre-emergence, 312 h, evaluated after 13 days; for pest or weed control at 15.625 g/ha: 15.625 g ai/ha; for pest or weed control at 15.625 g/ha / pest or weed control at 250 g/ha: read-out: Velvetleaf damage rating (100=total damage to plant; 0=no damage to plant); for pest or weed control at 62.5 g/ha: 62.5 g ai/ha, 100=total damage to plant, 0=no damage to plant, read-out: Velvetleaf damage rating; for pest or weed control at 250 g/ha: 250 g ai/ha
Method in brief: as §2

corn (Zea mays) [10] = experiment: Test G Pre-Emergence Protocol; details: Zea mays, pre-emergence, 312 h, evaluated after 13 days; for plant injury at 15.625 g/ha: 15.625 g ai/ha; for plant injury at 15.625 g/ha / plant injury at 250 g/ha: read-out: Corn damage rating (100=total damage to plant; 0=no damage to plant); for plant injury at 62.5 g/ha: 62.5 g ai/ha, 100=total damage to plant, 0=no damage to plant, read-out: Corn damage rating; for plant injury at 250 g/ha: 250 g ai/ha
Method in brief: as §2

[11] = tested on: ivy-leaved morning glory (Ipomoea hederacea); experiment: Test G Pre-Emergence Protocol; details: Ipomoea, pre-emergence, 312 h, evaluated after 13 days; for pest or weed control at 15.625 g/ha: 15.625 g ai/ha; for pest or weed control at 15.625 g/ha / pest or weed control at 250 g/ha: read-out: Morningglory, Ivy-leaved damage rating (100=total damage to plant; 0=no damage to plant); for pest or weed control at 62.5 g/ha: 62.5 g ai/ha, 100=total damage to plant, 0=no damage to plant, read-out: Morningglory, Ivy-leaved damage rating; for pest or weed control at 250 g/ha: 250 g ai/ha
Method in brief: as §2

[12] = tested on: redroot pigweed (Amaranthus retroflexus); experiment: Test G Pre-Emergence Protocol; details: Amaranthus retroflexus, pre-emergence, 312 h, evaluated after 13 days; for pest or weed control at 15.625 g/ha: 15.625 g ai/ha; for pest or weed control at 15.625 g/ha / pest or weed control at 250 g/ha: read-out: Pigweed, Redroot damage rating (100=total damage to plant; 0=no damage to plant); for pest or weed control at 62.5 g/ha: 62.5 g ai/ha, 100=total damage to plant, 0=no damage to plant, read-out: Pigweed, Redroot damage rating; for pest or weed control at 250 g/ha: 250 g ai/ha
Method in brief: as §2

Row | Compound | pest or weed control at 15.625 g/ha [1] [%] | pest or weed control at 62.5 g/ha [1] [%] | pest or weed control at 250 g/ha [1] [%] | pest or weed control at 15.625 g/ha [2] [%] | pest or weed control at 62.5 g/ha [2] [%] | pest or weed control at 250 g/ha [2] [%] | pest or weed control at 15.625 g/ha [3] [%] | pest or weed control at 62.5 g/ha [3] [%] | pest or weed control at 250 g/ha [3] [%] | plant injury at 15.625 g/ha (corn (Zea mays) [4]) [%] | plant injury at 62.5 g/ha (corn (Zea mays) [4]) [%] | plant injury at 250 g/ha (corn (Zea mays) [4]) [%] | pest or weed control at 15.625 g/ha [5] [%] | pest or weed control at 62.5 g/ha [5] [%] | pest or weed control at 250 g/ha [5] [%] | pest or weed control at 15.625 g/ha [6] [%] | pest or weed control at 62.5 g/ha [6] [%] | pest or weed control at 250 g/ha [6] [%] | pest or weed control at 15.625 g/ha [7] [%] | pest or weed control at 62.5 g/ha [7] [%] | further results
1 | CCOc1cc(C2CN(C)C(=O)C2C(=O)Nc2cccc(F)c2F)ccc1Cl (stereo not drawn) [Compound 1686] | 30 | 70 | 80 | 60 | 70 | 80 | 30 | 20 | 40 | 0 | 10 | 60 | 20 | 20 | 70 | 30 | 20 | 40 | 40 | 70 | pest or weed control at 250 g/ha [7]: 70%; pest or weed control at 15.625 g/ha [8]: 60%; pest or weed control at 62.5 g/ha [8]: 70%; pest or weed control at 250 g/ha [8]: 90%; pest or weed control at 15.625 g/ha [9]: 0%; pest or weed control at 62.5 g/ha [9]: 0%; pest or weed control at 250 g/ha [9]: 40%; plant injury at 15.625 g/ha (corn (Zea mays) [10]): 10%; plant injury at 62.5 g/ha (corn (Zea mays) [10]): 20%; plant injury at 250 g/ha (corn (Zea mays) [10]): 50%; pest or weed control at 15.625 g/ha [11]: 0%; pest or weed control at 62.5 g/ha [11]: 20%; pest or weed control at 250 g/ha [11]: 60%; pest or weed control at 15.625 g/ha [12]: 0%; pest or weed control at 62.5 g/ha [12]: 0%; pest or weed control at 250 g/ha [12]: 60%
2 | CCOc1cc(C)cc(C2CN(C)C(=O)C2C(=O)Nc2cccc(F)c2F)c1 (stereo not drawn) [Compound 1692] | 40 | 70 | 80 | 60 | 80 | 80 | 0 | 20 | 30 | 20 | 50 | 80 | 40 | 30 | 70 | 0 | 40 | 40 | 20 | 70 | pest or weed control at 250 g/ha [7]: 80%; pest or weed control at 15.625 g/ha [8]: 60%; pest or weed control at 62.5 g/ha [8]: 80%; pest or weed control at 250 g/ha [8]: 90%; pest or weed control at 15.625 g/ha [9]: 0%; pest or weed control at 62.5 g/ha [9]: 0%; pest or weed control at 250 g/ha [9]: 20%; plant injury at 15.625 g/ha (corn (Zea mays) [10]): 0%; plant injury at 62.5 g/ha (corn (Zea mays) [10]): 60%; plant injury at 250 g/ha (corn (Zea mays) [10]): 80%; pest or weed control at 15.625 g/ha [11]: 0%; pest or weed control at 62.5 g/ha [11]: 0%; pest or weed control at 250 g/ha [11]: 30%; pest or weed control at 15.625 g/ha [12]: 0%; pest or weed control at 62.5 g/ha [12]: 10%; pest or weed control at 250 g/ha [12]: 10%
